Columns and labels:
Format in all cases: in vivo
[1] = Pharmacokinetic study of Compound A alone and in combination with Indinavir in healthy human males (Example 11); details: for Cmax / Tmax / AUC / concentration at 8 h / concentration at 12 h / concentration at 24 h: male, human, plasma, po, fasted; for Cmax / Tmax: arithmetic mean; for AUC: arithmetic mean (CV %); for concentration at 8 h: plasma 8 hours after dosing, read-out: C8 hrs; for concentration at 12 h: plasma 12 hours after dosing, read-out: C12 rs; for concentration at 24 h: plasma 24 hours after dosing, read-out: C24 hrs
Protocol: A double-blind, single-rising dose, alternating two-panel, four-period, placebo-controlled study was conducted for Compound A alone and in combination with Indinavir in healthy adult males in the fasted state. […] All of the doses of Compound A were administered as the sulfate salt form of Compound A. All of the Compound A doses were oral suspensions of the sulfate salt form in sterile water, except that the 600-mg doses administered to Panel B in the fourth period were tablets. Indinavir was administered in the form of CRIXIVAN® capsules. The safety of the subjects was monitored prior and subsequent to dosing by clinical adverse event reporting, measurement of vital signs, physical examinations, blood and urine laboratory safety tests, and ECGs. Plasma concentrations of Compound A were determined predose and at 0.5, 1, 1.5, 2, 3, 4, 6, 8, 12, 16, 20, 24, 30, 36 and 48 hours following each single dose in each period, using a reverse-phase HPLC column switching method with fluorescence detection.

[2] = Pharmacokinetic study of Compound A in healthy human males (Example 10); details: male, plasma, po, suspension of sulfate salt; for Tmax: mean of 6 subjects; for Cmax / AUC: mean of 6 subjects (CV %); for concentration at 8 h: plasma 8 hours after dosing, read-out: C8 hrs; for concentration at 12 h: plasma 12 hours after dosing, read-out: C12 hrs
Protocol: A double-blind, single-rising dose, alternating two-panel, four-period, placebo-controlled study was conducted for Compound A in healthy adult males in the fasted state. Single doses of 20, 50, 100, 200, 400, 800 and 1200 mg of Compound A, or placebo, were administered as an oral suspension of the sulfate salt form of Compound A in sterile water. Each subject received increasing single oral doses of Compound A or placebo during each of the four treatment periods in alternate panels. Panel A dosage levels were 20, 100, 400 mg, and 400 mg with food. Panel B dosage levels were 50, 200, 800 and 1200 mg. For each period, 6 subjects received Compound A and 2 subjects received placebo as allocated by a randomized schedule. In Panel A, subjects who received 400 mg of Compound A also received 400 mg of Compound A with food. The safety of the subjects was monitored prior and subsequent to dosing by clinical adverse event reporting, measurement of vital signs, physical examinations, blood and urine laboratory safety tests, and ECGs. […]

[3] = Pharmacokinetic study of Compound A in combination with Indinavir with and without fasting (Example 12); details: male, human, plasma, 600 mg Compound A (tablets) + 666 mg IDV (Indinavir), n=7; for concentration at 8 h / concentration at 12 h / concentration at 24 h: oral; for concentration at 8 h: plasma 8 hours after dosing, read-out: C8 hrs; for concentration at 12 h: plasma 12 hours after dosing, read-out: C12 hrs; for concentration at 24 h: plasma 24 hours after dosing, read-out: C24 hrs; for Cmax / Tmax / AUC: po, single oral dose; for Cmax / Tmax: arithmetic mean; for AUC: arithmetic mean (CV %)
Protocol: All of the subjects received the regimen once in the fasted state and once with a high-fat breakfast. The two single-dose treatments (fasted, fed) were administered in randomized crossover fashion, separated by one week. For treatments with food a breakfast consisting of two eggs, two strips of bacon, toast with two pats of butter (2 x 12.5 g), 120 g of fried potatoes and 240 ml of whole milk were consumed in no more than 15 minutes, and the test medication was administered within 5 minutes after completion of the breakfast. […] All of the doses of Compound A were administered as the sulfate salt form of Compound A. All of the Compound A doses were tablets containing 200 mg of Compound A. Other ingredients in the tablets included microcrystalline cellulose (Avicel PH 101), mannitol SD 200, croscarmellose sodium, hydroxypropyl cellulose and magnesium stearate. The tablets were film coated with a suspension of hydroxypropyl methylcellulose, hydroxypropyl cellulose and titanium dioxide. The safety of the subjects was monitored prior and subsequent to dosing by clinical adverse event reporting, measurement of vital signs, physical examinations, blood and urine laboratory safety tests, and ECGs. Plasma concentrations of Compound A were determined predose and at 0.5, 1, 1.5, 2, 3, 4, 6, 8, 12, 16, 20, 24, 30, 36 and 48 hours following each single dose in each period, using a reverse-phase HPLC column switching method with fluorescence detection.

[4] = 200 mg of Compound A with 800 mg of Indinavir relative to 200 mg of Compound A alone (Table 3 vs Table 2)
[5] = 200 mg Compound A + 800 mg IDV (Indinavir) co-administered, single oral dose, n=6
[6] = 200 mg Compound A + 1200 mg IDV (Indinavir) co-administered, single oral dose, n=6
[7] = 400 mg Compound A + 800 mg IDV (Indinavir) co-administered, single oral dose, n=6
[8] = 600 mg Compound A + 800 mg IDV (Indinavir) co-administered, single oral dose, n=8
[9] = 600 mg, 600 mg (tablets) single oral dose, sulfate salt, n=8
[10] = 600 mg, 600 mg single oral dose, suspension of sulfate salt, n=8
[11] = 1600 mg, 1600 mg single oral dose, suspension of sulfate salt, n=6
[12] = 2000 mg, 2000 mg single oral dose, suspension of sulfate salt, n=8
[13] = 50 mg, 50 mg single oral dose, fasted
[14] = 100 mg, 100 mg single oral dose, fasted
[15] = 200 mg, 200 mg single oral dose, fasted
[16] = 400 mg, 400 mg single oral dose, fasted
[17] = 400 mg, 400 mg single oral dose, fasted, CV not determinable
[18] = 400 mg, 400 mg w/food, single oral dose
[19] = 800 mg, 800 mg single oral dose, fasted
[20] = 800 mg, 800 mg single oral dose, fasted, mean (CV %)
[21] = 1200 mg, 1200 mg single oral dose, fasted
[22] = 1200 mg, 1200 mg single oral dose, fasted, mean (CV %)

Structure (SMILES): CC(C)(C)NC(=O)[C@@H]1CN(Cc2cc3ccccc3o2)CCN1C[C@@H](O)C[C@@H](Cc1ccccc1)C(=O)N[C@H]1c2ccccc2C[C@H]1O [Compound A, N-(2(R)-hydroxy-1(S)-indanyl)-2(R)-phenylmethyl-4-(S)-hydroxy-5-(1-(4-(2-benzo[b]furanylmethyl)-2(S)-N'-(t-butylcarboxamido)-piperazinyl))-pentaneamide]
- AUC of Compound A higher for co-administration with Indinavir relative to Compound A alone [1, 4]: about 30 x
- C8 hrs higher for co-administration with Indinavir relative to Compound A alone [1, 4]: ~46 x
- Cmax higher for co-administration with Indinavir relative to Compound A alone [1, 4]: about 19 x
- AUC higher than for administration of Compound A alone ([1]; 600 mg of Compound A in combination with 800 mg of Indinavir versus Compound A alone): about 18 fold
- Cmax [1, 5]: 1580 nM
- Tmax [1, 5]: 2.2 h
- AUC [1, 5]: 7.45 µM·h
- concentration at 8 h [1, 5]: 232 nM
- concentration at 12 h [1, 5]: 70 nM
- concentration at 24 h [1, 5]: 8 nM
- Cmax [1, 6]: 1560 nM
- Tmax [1, 6]: 2.3 h
- AUC [1, 6]: 9.22 µM·h
- concentration at 8 h [1, 6]: 416 nM
- concentration at 12 h [1, 6]: 107 nM
- concentration at 24 h [1, 6]: 10 nM
- Cmax [1, 7]: 2350 nM
- Tmax [1, 7]: 2.5 h
- AUC [1, 7]: 12.2 µM·h
- concentration at 8 h [1, 7]: 399 nM
- concentration at 12 h [1, 7]: 124 nM
- concentration at 24 h [1, 7]: 20 nM
- Cmax [1, 8]: 3880 nM
- Tmax [1, 8]: 3.3 h
- AUC [1, 8]: 25.2 µM·h
- concentration at 8 h [1, 8]: 1190 nM
- concentration at 12 h [1, 8]: 352 nM
- concentration at 24 h [1, 8]: 65 nM
- Cmax [1, 9]: 211 nM
- Tmax [1, 9]: 1.5 h
- AUC [1, 9]: 1.42 µM·h
- concentration at 8 h [1, 9]: 50 nM
- concentration at 12 h [1, 9]: 38 nM
- concentration at 24 h [1, 9]: 17 nM
- Cmax [1, 10]: 208 nM
- Tmax [1, 10]: 1.4 h
- AUC [1, 10]: 1.41 µM·h
- concentration at 8 h [1, 10]: 55 nM
- concentration at 12 h [1, 10]: 39 nM
- concentration at 24 h [1, 10]: 13 nM
- Cmax [1, 11]: 613 nM
- Tmax [1, 11]: 2 h
- AUC [1, 11]: 4.72 µM·h
- concentration at 8 h [1, 11]: 163 nM
- concentration at 12 h [1, 11]: 93 nM
- concentration at 24 h [1, 11]: 46 nM
- Cmax [1, 12]: 1270 nM
- Tmax [1, 12]: 2.5 h
- AUC [1, 12]: 10.4 µM·h
- concentration at 8 h [1, 12]: 444 nM
- concentration at 12 h [1, 12]: 250 nM
- concentration at 24 h [1, 12]: 105 nM
- Tmax [2, 13]: 0.6 h
- Cmax [2, 13]: 12 nM
- Tmax [2, 14]: 0.5 h
- Cmax [2, 14]: 36 nM
- Tmax [2, 15]: 0.7 h
- AUC [2, 15]: 0.24 µM·h
- Cmax [2, 15]: 85 nM
- concentration at 8 h ([2]; 200 mg, 200 mg single oral dose, fasted, CV not determinable): 5 nM
- Tmax [2, 16]: 1.8 h
- AUC [2, 16]: 0.66 µM·h
- Cmax [2, 16]: 166 nM
- concentration at 8 h [2, 17]: 15 nM
- concentration at 12 h [2, 17]: 6 nM
- Tmax [2, 18]: 4 h
- AUC [2, 18]: 0.8 µM·h
- Cmax [2, 18]: 170 nM
- concentration at 8 h ([2]; 400 mg, 400 mg w/food, single oral dose, mean (CV %)): 32 nM
- concentration at 12 h ([2]; 400 mg, 400 mg w/food, single oral dose, CV not determinable): 7 nM
- Tmax [2, 19]: 2.6 h
- AUC [2, 19]: 3.09 µM·h
- Cmax [2, 19]: 568 nM
- concentration at 8 h [2, 20]: 126 nM
- concentration at 12 h [2, 20]: 45 nM
- Tmax [2, 21]: 2.1 h
- AUC [2, 21]: 7.28 µM·h
- Cmax [2, 21]: 1350 nM
- concentration at 8 h [2, 22]: 338 nM
- concentration at 12 h [2, 22]: 128 nM
- concentration at 8 h ([3]; fasted): 583 nM
- concentration at 12 h ([3]; fasted): 188 nM
- concentration at 24 h ([3]; fasted): 37 nM
- concentration at 8 h ([3]; fed (high-fat breakfast)): 1320 nM
- concentration at 12 h ([3]; fed (high-fat breakfast)): 433 nM
- concentration at 24 h ([3]; fed (high-fat breakfast)): 58 nM
- Cmax ([3]; fasted): 2.92 µM
- Tmax ([3]; fasted): 2.6 h
- AUC ([3]; fasted): 15.7 µM·h
- Cmax ([3]; fed (high-fat breakfast)): 4.23 µM
- Tmax ([3]; fed (high-fat breakfast)): 3.7 h
- AUC ([3]; fed (high-fat breakfast)): 25.3 µM·h

— patent publication EP1044000B1, “COMBINATION THERAPY FOR THE TREATMENT OF AIDS” (MERCK & CO., INC., priority 1997, dated 1999)
